Here are results for 1 compound from US9376391B2, “Difluoromethyl-nicotinic-tetrahydronaphthyl carboxamides as fungicides” (BAYER CROPSCIENCE AKTIENGESELLSCHAFT, priority 2012, dated 2016).

The subject of one test is Septoria tritici. Description: In vivo preventive test on Septoria tritici (leaf spot on wheat). The following applies: 500 ppm, preventive spray, wheat plants, grading 24 days after contamination. The method, boiled down: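 Wheat cv. Scipion sprayed preventively at 1-leaf stage; inoculated 24 h later with Septoria tritici spores (500 000 spores per ml). Incubation 72 h at 18 °C, 100% RH, then 21 days at 90% RH; % efficacy graded 24 days after contamination against solvent-treated controls.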

The next test deals with Alternaria brassicae. The test is described as follows: In vivo preventive test on Alternaria brassicae (leaf spot on radish). The following applies: dose 500 ppm, spray, graded 6 days after contamination vs control plants. The method, boiled down:
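Radish cv. Pernod Clair at cotyledon stage (grown 17 °C) sprayed with compound in acetone/tween/DMSO/water, then inoculated 24 h later with A. brassicae spores (50 000 spores per ml). Incubation 20 °C, 100% RH; % efficacy graded 6 days post-inoculation versus solvent-treated controls.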

As to `CC1CC(C)(C)c2cccc(NC(=O)c3cccnc3C(F)F)c21` (centres unmarked) [Example 1], the results for the Eff. % with Septoria tritici and in the test on Alternaria brassicae were 100% and 92%, respectively.
